# According to PubChem BioAssay (NCI):
#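 Cells were grown in 96-well plates and exposed to each compound for 48 hours at five concentrations; endpoints were interpolated linearly between bracketing concentrations, or set to the highest concentration if not reached. Definition used: TGI = concentration required for complete inhibition of growth.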
# Experiments:
# Experiment in all cases: NCI-60 cell line screen, 48 h
# [1] = system: SR leukemia
# [2] = system: IGROV1 ovarian
# [3] = system: OVCAR-4 ovarian
# [4] = system: KM12 colon
# [5] = system: HT29 colon
# [6] = system: OVCAR-8 ovarian
# [7] = system: RXF 393 renal
# [8] = system: MDA-N
# [9] = system: NCI/ADR-RES ovarian
# [10] = system: ACHN renal
Compound,TGI [1] [µM],TGI [2] [µM],TGI [3] [µM],TGI [4] [µM],TGI [5] [µM],TGI [6] [µM],TGI [7] [µM],TGI [8] [µM],TGI [9] [µM],TGI [10] [µM]
CC(C)CC1c2[nH]c3ccccc3c2C[C@H]2C(=O)NC(COC(C)(C)C)C(=O)N12 (stereo partly drawn),46.2,63.1,> 100,80.2,38.3,> 100,41,51.8,56.7,88.4
Cc1ccc(S(=O)(=O)NC(=O)NS(=O)(=O)O)cc1,> 100,> 100,> 100,> 100,> 100,> 100,> 100,> 100,> 100,> 100
O=C(CCCN1CCc2[nH]c3cc(F)ccc3c2C1)c1ccc(F)cc1,26.1,30.2,26.9,26.9,20.5,28.4,28.3,29.2,36.1,26.8
CN1C(=O)[C@@]2(C=CC3(CC2)OCCO3)c2ccccc21,> 50,> 50,> 50,> 50,> 50,> 50,> 50,> 50,> 50,> 50
CC(=O)Oc1ccc2c(c1)c1c(OC(C)=O)c3ccccc3c(OC(C)=O)c1n2Cc1cccc(C)c1,83.1,> 100,> 100,> 100,> 100,> 100,> 100,> 100,> 100,> 100
CCC1(O)CN(CCOC)[C@H]2C[C@@H]1C(=O)c1[nH]c3ccccc3c12 (stereo partly drawn),> 100,> 100,> 100,> 100,> 100,> 100,> 100,> 100,> 100,> 100
CSC1(SC)CCCCCCCCCCC1,> 100,> 100,> 100,> 100,> 100,> 100,> 100,> 100,> 100,> 100
COc1ccc(C=O)cc1Oc1ccc(C[C@H]2c3c(cc(OC)c4c3Oc3cc5c(cc3O4)CCN(C)C5=O)CCN2C)cc1,21.7,13.7,17.7,17.1,14.4,15.2,10.8,18.2,16.2,18.4
COC(=O)c1cc2c3c(c(C(C)=O)c(OC)c2[nH]1)NCC3,> 50,> 50,–,> 50,> 50,> 50,> 50,> 50,> 50,> 50
C/C=C\C(CC(=O)O)CC(=O)NCCC1CN(S(=O)(=O)C(F)(F)F)c2ccccc21 (stereo not drawn),> 100,> 100,> 100,> 100,> 100,> 100,> 100,> 100,> 100,> 100
Cn1c(=O)c2[nH]c(N/N=C3/SCC(=O)N3Cc3ccccc3)nc2n(C)c1=O,82.3,> 100,> 100,> 100,> 100,> 100,> 100,36.5,> 100,> 100
CCOC(=O)C(Cc1c(-c2[nH]c3ccccc3c2CC(NC(=O)CNC(C)=O)C(=O)OCC)[nH]c2ccccc12)NC(=O)CNC(C)=O (stereo not drawn),> 100,> 100,> 100,> 100,> 100,–,–,> 100,–,–
Cc1nn(C(=O)c2ccccc2O)c2c1C(c1ccc(O)cc1)SC(N)=N2 (stereo not drawn),> 3.92,> 7.17,> 8.37,> 10,> 10,> 10,> 10,> 10,> 10,> 10
CSc1nc2c(ncn2C2OCC(O)C(O)C2O)c(=O)[nH]1 (stereo not drawn),–,> 100,> 100,> 100,> 100,> 100,> 100,–,> 100,–
CCOC(=O)Cc1nc2c(=O)[nH]cnc2n1C1OC(COC(C)=O)C(OC(C)=O)C1OC(C)=O (stereo not drawn),–,> 100,> 100,> 100,> 100,> 100,> 100,> 100,> 100,> 100
CCOc1cc(C=O)ccc1O,> 100,> 100,> 100,> 100,> 100,> 100,–,> 100,> 100,> 100
O=C(O)CCCc1nc2c(n1-c1ccccc1)C(=O)c1ccccc1C2=O,> 100,> 100,76.2,> 100,–,> 100,–,> 100,> 100,> 100
COC(=O)CNC(=O)/C=C/[C@H](O[Si](C)(C)C(C)(C)C)[C@H](/C=C/C(=O)NCC(=O)OC)O[Si](C)(C)C(C)(C)C,> 25,> 25,> 25,> 25,> 25,> 25,> 25,> 25,> 25,> 25
CSc1s[s+]c(SC)c1-c1ccccc1,–,> 100,17.9,33.8,32.3,40.3,30.4,32.7,42.1,32.8
COc1ccc([C@@]23CCC(=O)C[C@@H]2N(C)CC3)cc1OC,> 100,> 100,> 100,> 100,> 100,> 100,> 100,> 100,> 100,> 100
COC(=O)C(Cc1ccccc1)NC(=O)CCCNC(=O)OCc1ccccc1 (stereo not drawn),> 100,> 100,> 100,> 100,> 100,> 100,–,> 100,> 100,> 100
COc1cc2cc3c4c(cc(OC)c(OC)c4c2cc1OC)CCN3C(=O)OCCBr,> 100,> 100,–,> 100,> 100,> 100,> 100,–,–,> 100
